system: human bronchial epithelial cells, CFTR corrector, plate reader; assay: rescue of ΔF508 CFTR function, airway epithelium – human bronchial epithelial cells, plate reader, cherry-pick, two tests, dose response (AID 743267); conditions: measured here: test 1 replicate run

Going from `CN1c2ccc(-c3ccc(C#N)cc3)cc2[C@H]2[C@H](CCN2S(=O)(=O)c2cccc(F)c2)[C@@H]1CO` to `CN1c2ccc(-c3ccc(F)cc3)cc2[C@H]2[C@H](CCN2S(=O)(=O)c2cccc(F)c2)[C@H]1CO`, the AC50 falls from 16 µM to 4.41 µM (3.6-fold).

First: C[C@H](CO)N1C[C@H](C)[C@H](CN(C)C(=O)NC2CCCCC2)Oc2cc(C#Cc3ccc(F)cc3)ccc2S1(=O)=O
Second: COc1ccc(NC(=O)N(C)C[C@@H]2Oc3cc(C#CCC(C)C)ccc3S(=O)(=O)N([C@H](C)CO)C[C@@H]2C)cc1
The AC50 of the first is 2.1-fold lower: 7.62 µM for the first, 16 µM for the second.

First: Cc1ccc(-c2ccc3c(c2)O[C@H](CN(C)C(=O)Nc2ccc(C(F)(F)F)cc2)[C@@H](C)CN([C@@H](C)CO)S3(=O)=O)cc1
Second: CN1c2ccc(-c3ccc(F)cc3)cc2[C@H]2[C@H](CCN2S(=O)(=O)c2ccc(F)cc2)[C@H]1CO
The AC50 of the first is higher: over 50 µM for the first, 6.55 µM for the second.

Going from `COc1ccc(CNC(=O)c2cc3c(c(-c4cccc(-c5ccc(C#N)cc5)c4)n2)[C@@H](CCO)N([S@](=O)C(C)(C)C)C3)cc1` to `COc1ccc(S(=O)(=O)N2CC[C@@H]3[C@H](CO)N(C)c4ccc(-c5ccc(F)cc5)cc4[C@@H]32)cc1`, the AC50 falls from over 50 µM to 16 µM.

Work on `COc1cccc(-c2ccc(C3[C@@H]4CN(S(=O)(=O)c5cccc(OC)c5)C[C@H]3N4)cc2)c1` (stereo not given in full) yielded an AC50 of 13.5 µM.

same assay, conditions: measured here: test 2 replicate run

`COc1ccc(C2=NOC(C(=O)NCc3ccc(F)cc3)C2)cc1OC` (stereo not given) and `O=C(NCc1ccccc1)C1Cc2c(-c3cccc(F)c3)ccnc2O1` (stereo not given) are within 1.5-fold of each other in AC50: 1.06 µM for the first, 0.893 µM for the second.

Compared with `COc1cccc2c1C(=O)c1c(O)c3c(c(O)c1C2=O)C[C@@](O)(C(C)=O)C[C@@H]3O[C@H]1C[C@H](N)[C@H](O)[C@H](C)O1`, `COc1cccc(-c2cnc3c(NC(C)=O)cc(-c4cc(F)ccc4OC)cn23)c1` is 1.6-fold higher in AC50: 7.44 µM for the first, 11.9 µM for the second.

First: Cc1ccc(OCCNC(=O)c2cccc(S(=O)(=O)NCc3ccccc3)c2)cc1
Second: COC(=O)/C=C/c1ccccc1S(=O)(=O)N(Cc1ccccc1)Cc1ccco1
The AC50 of the first is 1.9-fold lower: 1.64 µM for the first, 3.04 µM for the second.

Going from `NC(=O)N=Nc1c2[nH]c3ccccc3nc-2c2ccccc12` to `O=c1cc(-c2ccccc2)[nH]c2ccc(F)cc12`, the AC50 rises from 8.41 µM to over 50 µM.

First: CCN(CC)CCC(=O)Nc1cccc2c1C(=O)c1ccccc1C2=O
Second: CCN(CC)CCn1nc2c3c(cccc3c1=O)-c1ccccc1-2
The AC50 of the first is 2.7-fold higher: 2.98 µM for the first, 1.1 µM for the second.

First: CC(=O)O[C@H]1C(=O)[C@@]2(C)[C@H]([C@H](OC(=O)c3ccccc3)[C@]3(O)C[C@H](OC(=O)[C@H](O)C(NC(=O)c4ccccc4)c4ccccc4)C(C)=C1C3(C)C)[C@]1(OC(C)=O)CO[C@@H]1C[C@@H]2O (stereo not given in full)
Second: COc1ccc(OC)c(C2CC(c3ccccc3)=NN2C(=S)Nc2ccccc2)c1 (stereo not given)
The AC50 of the first is 2.4-fold lower: 3.59 µM for the first, 8.44 µM for the second.

Compared with `CC1OC(OC2CC(O)C3(CO)C4C(O)CC5(C)C(C6=CC(=O)OC6)CCC5(O)C4CCC3(O)C2)C(O)C(O)C1O` (stereo not given), `O=C1C=CN(C2OC(CO)C(O)C2O)C(=O)C1` (stereo not given) is higher in AC50: 3.38 µM for the first, over 50 µM for the second.

Compared with `CCOC(=O)C1CCCN(c2ccc([N+](=O)[O-])c3nonc23)C1` (stereo not given), `O=C(OCc1ccc(Br)cc1)c1cc([N+](=O)[O-])ccc1N1CCOCC1` is 31-fold lower in AC50: 20.7 µM for the first, 0.662 µM for the second.

First: Nc1nn(-c2ccccc2)c(N)c1N=Nc1cccc(F)c1
Second: COc1cccc(C2=CC(c3ccccc3)n3nnnc3N2)c1 (stereo not given)
The AC50 of the first is 1.9-fold lower: 2.04 µM for the first, 3.85 µM for the second.

`COc1ccccc1Nc1c2c(nc3ccccc13)CCC2` and `Cc1ccc2c(c1)CCCN2C(=O)CCc1nc2ccccc2c(=O)[nH]1` are within 1.5-fold of each other in AC50: 6.89 µM for the first, 5.42 µM for the second.

Compared with `CCCOc1cc(N(CC)CC)ccc1/C=C(/C#N)c1nc2ccc(C)cc2[nH]1`, `Cc1ccc2[nH]c(C(=O)N/N=C/c3ccccc3O)c(C)c2c1` is 4.7-fold lower in AC50: 6.15 µM for the first, 1.31 µM for the second.

Going from `O=C(NCCN1C(=O)S/C(=C\c2ccc(OC(F)F)cc2)C1=O)c1cnccn1` to `O=C1/C(=C\c2cc(Cl)c(O)c(Cl)c2)SC(=S)N1Cc1ccccc1`, the AC50 rises from 1.85 µM to 3.15 µM (1.7-fold).

First: COc1ccc(OC)c(N/C(N)=N/c2nc(C)cc(C)n2)c1
Second: COc1ccccc1/C=N/NC(=O)c1cc2c(OC)c(OC)ccc2[nH]1
The AC50 of the first is 49-fold higher: 39.4 µM for the first, 0.802 µM for the second.

`O=C(NCCCN1CCOCC1)c1sc2cc(Cl)ccc2c1Cl` and `COc1cccc(C(=O)Nc2sc3c(c2C#N)CCN(C(C)=O)C3)c1` are within 1.5-fold of each other in AC50: 1.76 µM for the first, 1.36 µM for the second.

`COc1ccc(-c2oc3ccc(-c4cc(OC)c(OC)c(OC)c4)cc3c2C#Cc2ccccn2)cc1` and `Cc1ccc(N2C(=O)c3cccc4c([N+](=O)[O-])ccc(c34)C2=O)c2cccnc12` are within 1.5-fold of each other in AC50: 26.7 µM for the first, 18.8 µM for the second.

Compared with `Cc1ccc(S(=O)(=O)N[C@H](C(=O)OCC(=O)NC(=O)C2CCCCC2)C(C)C)cc1`, `CN(Cc1ccccc1)S(=O)(=O)c1ccc(NC(=S)NC(=O)C2CCCC2)cc1` is 7.3-fold lower in AC50: 38.6 µM for the first, 5.32 µM for the second.

Going from `COC(=O)c1cn(NC(=O)c2cc([N+](=O)[O-])ccc2F)c(=O)c2ccccc12` to `Cc1cccc2c(N=Nc3ccc(S(=O)(=O)Nc4ccc(Cl)cc4)cc3[N+](=O)[O-])c(O)[nH]c12`, the AC50 rises from 1.21 µM to over 50 µM.

Compared with `CN(C[C@H](Cc1ccccc1)N(C[C@H](Cc1ccccc1)N(CCC(C)(C)C)N=O)N=O)N=O`, `Cc1ccc(NC(=O)c2ccc(Cl)c(S(=O)(=O)Nc3c(C)n(C)n(-c4ccccc4)c3=O)c2)cc1Cl` is 1.6-fold lower in AC50: 47.9 µM for the first, 30.3 µM for the second.

Compared with `CCSc1nnc(N2C(=O)C(O)=C(C(=O)c3ccco3)C2c2cccc(OC)c2)s1` (stereo not given), `COc1cc(NC(=O)c2csc(N)n2)cc(C(=O)Nc2cccc(C(F)(F)F)c2)c1` is lower in AC50: over 50 µM for the first, 16 µM for the second.

`CC(=Nc1ccccc1O)c1sc2ccccc2c1O` and `COc1cc(/C=C(\C#N)C(=O)c2c[nH]c3ccccc23)cc(OC)c1O` are within 1.5-fold of each other in AC50: 11.8 µM for the first, 8.32 µM for the second.

In the case of `Cc1cc(C(=O)CCC(=O)NC(C)c2ccc(S(N)(=O)=O)cc2)c(C)s1` (stereo not given), the AC50 is reported as over 50 µM.
